US20080170998A1 (priority 2005, published 2008)

Legend:
[1] = test system: Actinobacillus actinomycetemcomitans ATCC 29523 stain, Y4 strain; experiment: Growth of periodontopathic bacteria in pRH-containing medium (turbidity O.D.660 nm); format: cell-based; conditions: 500 μg/mL; ATCC 29523 and Y4 strains; FIGS. 5, 6
Experimental: (§1) Each of the above cryopreserved strains was anaerobically cultivated at 35° C. for 48 hours by using TSB medium to which yeast extract (1 g/L), hemin ([…]), and menadione (1 mg/L) were added to provide a precultured bacterial culture.

[2] = test system: Fusobacterium nucleatum ATCC 23726 strain, ATCC 25586 strain; experiment: as above; format: cell-based; conditions: 500 μg/mL; ATCC 23726 and ATCC 25586 strains; FIGS. 7, 8
Experimental: as §1

[3] = test system: Porphyromonas gingivalis ATCC 33277 strain, W50 strain; experiment: as above; format: cell-based; conditions: 500 μg/mL; ATCC 33277 and W50 strains; FIGS. 1, 2
Experimental: as §1

[4] = test system: Prevotella intermedia ATCC 49046 strain; experiment: as above; format: cell-based; conditions: 500 μg/mL, FIG. 3
Experimental: as §1

[5] = test system: Treponema denticola ATCC 33520 strain; experiment: as above; format: cell-based; conditions: 500 μg/mL, FIG. 9
Experimental: as §1

[6] = test system: arginine-specific protease (Arg-gingipain; RGP); experiment: Protease inhibition, fluorogenic substrate Bz-Arg-methylcoumarinamide, culture supernatant; format: biochemical, Porphyromonas gingivalis; conditions: substrate 100 μM, 15 minutes room temperature
Experimental: Enzyme activity inhibitions of an arginine-specific protease (Arg-gingipain; hereinafter, referred to as “RGP”) and lysin-specific protease (Lys-gingipain; hereinafter, referred to as “KGP”) as dominant virulence factor for Porphyromonas gingivalis were examined.
The reaction was stopped by adding 2 mM TLCK, and released methyl-coumarin-amide was measured by means of spectrophotofluorometer (excitation wavelength: 380 nm, fluorescence wavelength: 460 nm).
Furthermore, an inhibition rate was defined according to the Equation (1):
Inhibition rate(%)=(Blank fluorescence intensity−Sample fluorescence intensity)÷Blank fluorescence intensity×100 (1)
Blank fluorescence intensity indicates fluorescence intensity upon reaction without adding pRH. Sample fluorescence intensity indicates fluorescence intensity upon reaction with adding pRH.

[7] = test system: Porphyromonas gingivalis ATCC 33277 strain; format: cell-based; conditions: 0.1 mg/mL, 1 mg/mL, 10 mg/mL
[8] = test system: Prevotella nigrescens ATCC 25261 strain; conditions: O.D.660 nm after 24 hours and 48 hours, FIG. 4
[9] = test system: Porphyromonas gingivalis ATCC 33277 strain and Streptococcus oralis ATCC 9811 strain; conditions: pRH solution 2.5 mg/mL; PBS pH 6.0, 37° C.; FIG. 13

## polyarginyl histidine [pRH]
[1]
  growth inhibitory effect: not observed
[2]
  growth inhibitory effect: not observed
[3]
  growth inhibitory effect: not observed
[4]
  growth inhibitory effect: not observed
[5]
  growth inhibitory effect: not observed
[6]; pRH at 100 μg/mL
  inhibition rate for RGP: 0.2%
[6]; pRH at 1000 μg/mL
  inhibition rate for RGP: 7.7%
[7]
  inhibition of the absorption (adhesion) of Porphyromonas gingivalis for sHA: obviously inhibited
[8]
  concentration at which a growth inhibitory effect was observed: ≥ 100 µg/mL
[9]
  aggregation inhibitory activity (inhibition rate of coaggregation): 33%

## polylysine [reference compound]
[7]
  inhibition of the absorption (adhesion) of Porphyromonas gingivalis for sHA: did not inhibit
